US7135466B2 (Kirin Beer Kabushiki Kaisha, priority 1999, dated 2006)
Read-outs that look alike come from different tables or passages of the source.

Legend:
PDGF-Ra = biological target: T1, PDGF-Ra (Homo sapiens, UniProt P16234); test: Inhibitory activity against PDGF-Ra phosphorylation by PDGF-AA stimulation using G292; format: cell-based; conditions: for IC50: > means inhibition at indicated concentration not more than 50%, < and << not less than 50%, read-out: PDGF (E) IC50; for inhibition at 0.1 µM: G292, at 100 nM, read-out: PDGF (E) inhibition (%) at 100 nM
T1 construct: host or cells: G-292 human osteosarcoma cells
In short: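 In G-292 osteosarcoma cells kept overnight in 0.1% FBS, compound exposure (1 hr, 37 °C) preceded PDGF-AA stimulation at 50 ng/ml for 5 min; receptor phosphotyrosine was then detected by PY-20 capture ELISA.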

c-kit = biological target: T2, c-kit (Homo sapiens, UniProt P10721); test: Inhibitory activity against c-kit autophosphorylation (MO7e cells, h-SCF); format: cell-based; conditions: for inhibition at 1 µM: Mo7e, at 1000 nM; for IC50: MO7e cells, read-out: c-kit IC50
T2 construct: MO7e (human megakaryocytic leukemia cell line) which had been arrested for 20 hr; endogenous in cells; host or cells: MO7e human megakaryocytic leukemia cell line
In short: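 Phospho-c-kit ELISA: plate-bound PY-20 anti-phosphotyrosine captures lysate, anti-c-kit plus peroxidase-labelled secondary antibody detect, read at 450 nm. Lysates come from 20 hr-arrested MO7e cells given compound for 1 hr before a 5 min 50 ng/ml h-SCF stimulus.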

[1] = figure in parentheses in >100( )

T2 sequence (P10721 26-976): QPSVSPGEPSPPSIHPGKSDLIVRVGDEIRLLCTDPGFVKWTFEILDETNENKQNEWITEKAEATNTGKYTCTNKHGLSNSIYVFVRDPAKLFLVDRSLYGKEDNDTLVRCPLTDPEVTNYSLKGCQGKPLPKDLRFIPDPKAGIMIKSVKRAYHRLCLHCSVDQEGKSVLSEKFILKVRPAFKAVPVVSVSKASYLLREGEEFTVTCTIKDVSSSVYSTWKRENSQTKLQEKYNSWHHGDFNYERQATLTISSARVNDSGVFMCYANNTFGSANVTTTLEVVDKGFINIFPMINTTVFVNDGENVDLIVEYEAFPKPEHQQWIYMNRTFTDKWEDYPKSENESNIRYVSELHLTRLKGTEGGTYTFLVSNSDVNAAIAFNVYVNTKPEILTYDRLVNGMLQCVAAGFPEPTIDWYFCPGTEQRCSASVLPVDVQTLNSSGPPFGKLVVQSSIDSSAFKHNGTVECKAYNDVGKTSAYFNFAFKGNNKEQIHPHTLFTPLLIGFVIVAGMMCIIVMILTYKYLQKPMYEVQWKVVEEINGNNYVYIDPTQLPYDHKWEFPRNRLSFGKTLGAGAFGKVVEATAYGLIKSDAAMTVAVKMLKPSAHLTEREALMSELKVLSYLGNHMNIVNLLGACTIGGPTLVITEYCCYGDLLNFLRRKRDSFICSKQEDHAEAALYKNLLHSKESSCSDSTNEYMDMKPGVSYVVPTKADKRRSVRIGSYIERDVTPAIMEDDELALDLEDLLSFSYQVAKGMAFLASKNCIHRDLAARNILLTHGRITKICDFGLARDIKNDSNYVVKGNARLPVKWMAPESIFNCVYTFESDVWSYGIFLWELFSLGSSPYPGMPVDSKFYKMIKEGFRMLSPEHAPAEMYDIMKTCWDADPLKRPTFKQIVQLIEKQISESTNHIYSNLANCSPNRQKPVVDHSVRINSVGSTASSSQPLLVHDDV
T1 sequence (P16234 24-1089): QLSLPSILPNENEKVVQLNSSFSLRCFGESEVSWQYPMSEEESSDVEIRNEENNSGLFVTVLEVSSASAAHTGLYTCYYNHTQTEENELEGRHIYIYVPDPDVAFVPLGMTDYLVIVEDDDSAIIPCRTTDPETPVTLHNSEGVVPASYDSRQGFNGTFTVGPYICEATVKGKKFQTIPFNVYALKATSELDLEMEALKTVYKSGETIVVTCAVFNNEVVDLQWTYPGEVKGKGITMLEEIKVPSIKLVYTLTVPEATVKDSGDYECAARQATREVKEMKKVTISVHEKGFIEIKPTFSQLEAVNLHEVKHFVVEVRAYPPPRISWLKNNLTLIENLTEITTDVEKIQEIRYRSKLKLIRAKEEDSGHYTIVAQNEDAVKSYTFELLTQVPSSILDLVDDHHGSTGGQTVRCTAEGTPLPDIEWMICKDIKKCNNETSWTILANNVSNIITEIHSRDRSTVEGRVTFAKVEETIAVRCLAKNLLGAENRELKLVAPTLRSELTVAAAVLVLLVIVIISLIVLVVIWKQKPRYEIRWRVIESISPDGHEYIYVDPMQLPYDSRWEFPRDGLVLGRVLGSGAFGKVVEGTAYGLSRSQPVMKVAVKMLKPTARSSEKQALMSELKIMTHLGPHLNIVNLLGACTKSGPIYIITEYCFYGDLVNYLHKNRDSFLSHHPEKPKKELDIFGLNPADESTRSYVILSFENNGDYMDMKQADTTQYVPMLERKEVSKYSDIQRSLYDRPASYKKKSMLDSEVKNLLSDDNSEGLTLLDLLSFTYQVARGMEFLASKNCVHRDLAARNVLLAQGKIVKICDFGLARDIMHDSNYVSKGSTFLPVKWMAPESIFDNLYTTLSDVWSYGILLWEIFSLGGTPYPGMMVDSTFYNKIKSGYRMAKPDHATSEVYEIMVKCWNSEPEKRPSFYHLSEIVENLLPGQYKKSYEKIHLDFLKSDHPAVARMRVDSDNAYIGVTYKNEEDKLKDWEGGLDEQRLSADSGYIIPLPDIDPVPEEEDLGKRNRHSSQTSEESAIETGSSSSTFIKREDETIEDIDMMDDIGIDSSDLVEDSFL

Compound	IC50 (PDGF-Ra; Pharmacological Test Example 1)	IC50 (c-kit; h-SCF 50 ng/ml)	IC50 (PDGF-Ra)	IC50 (c-kit; 50 ng/ml h-SCF)	further results
COc1cc2nccc(Oc3cc(C)c(NC(=O)OC(C)c4cc(F)c(F)cc4F)cc3C)c2cc1OC (stereo not shown) [Example 94, 1-(2,4,5-Trifluorophenyl)ethyl N-{4-[(6,7-dimethoxy-4-quinolyl)oxy]-2,5-dimethylphenyl}carbamate]	31 nM	–	–	–	inhibition at 1 µM (c-kit; figure in parentheses in −( )): 31%
COc1ccc(COC(=O)Nc2ccc(Oc3ccnc4cc(OC)c(OC)cc34)c(C)c2C)cc1OC [Example 63, 3,4-Dimethoxybenzyl N-{4-[(6,7-dimethoxy-4-quinolyl)oxy]-2,3-dimethylphenyl}carbamate]	16 nM	211 nM	–	–	–
COc1cc2ncnc(Oc3ccc(NC(=O)NC4CCN(Cc5ccccc5)CC4)c([N+](=O)[O-])c3)c2cc1OC [Example 640, N-(1-Benzyl-4-piperidyl)-N′-{4-[(6,7-dimethoxy-4-quinazolinyl)oxy]-2-nitrophenyl}urea]	–	–	35 nM	254 nM	–
COc1cc2nccc(Oc3cc(C)c(NC(=O)Oc4ccccc4C)cc3C)c2cc1OC [Example 289, 2-Methylphenyl N-{4-[(6,7-dimethoxy-4-quinolyl)oxy]-2,5-dimethylphenyl}carbamate]	< 10 nM	328 nM	–	–	–
COc1cc2nccc(Oc3ccc(NC(=S)NC(=O)c4cccc(C)c4)cc3)c2cc1OC [Example 930, N-{4-[(6,7-Dimethoxy-4-quinolyl)oxy]phenyl}-N′-(3-methylbenzoyl)thiourea]	–	–	< 10 nM	–	IC50 (c-kit; h-SCF stimulation): 184 nM
COc1cc2nccc(Oc3cc(C)c(NC(=O)OC4CCOCC4)cc3C)c2cc1OC [Example 471, Tetrahydro-2H-4-pyranyl N-{4-[(6,7-dimethoxy-4-quinolyl)oxy]-2,5-dimethylphenyl}carbamate]	–	–	> 100 nM	237 nM	inhibition at 0.1 µM (PDGF-Ra; figure within parentheses in >100( )): 28%
COc1cc2nccc(Oc3ccc(NC(=S)NC(=O)c4ccc5c(c4)OCO5)cc3Cl)c2cc1OC [Example 1126, N-(1,3-Benzodioxol-5-ylcarbonyl)-N′-{3-chloro-4-[(6,7-dimethoxy-4-quinolyl)oxy]phenyl}thiourea]	–	–	> 100 nM	–	inhibition at 0.1 µM (PDGF-Ra; [1]): 70%; inhibition at 1 µM (c-kit; figure in parentheses in −( )): 35%
COc1cc2nccc(Oc3ccc(NC(=O)NCCN4CCCC4)c(C)c3C)c2cc1OC [Example 620, N-{4-[(6,7-Dimethoxy-4-quinolyl)oxy]-2,3-dimethylphenyl}-N′-(2-tetrahydro-1H-1-pyrrolylethyl)urea]	–	–	< 10 nM	519 nM	–
COc1cc2ncnc(Oc3ccc(NC(=O)NN4CCCCCC4)cc3)c2cc1OC [Example 602, N-{4-[(6,7-Dimethoxy-4-quinazolinyl)oxy]phenyl}-N′-(1-homopiperidinyl)urea]	–	–	11 nM	180 nM	–
COc1cc2nccc(Oc3ccc(NC(=O)OC4CCCCC4)cc3)c2cc1OC [Example 230, Cyclohexyl N-{4-[(6,7-dimethoxy-4-quinolyl)oxy]phenyl}carbamate]	8 nM	111 nM	–	–	–
COc1cc2ncnc(Oc3ccc(NC(=O)OC(C)c4ccc(F)cc4)cc3)c2cc1OC (stereo not shown) [Example 105, 1-(4-Fluorophenyl)ethyl N-{4-[(6,7-dimethoxy-4-quinazolinyl)oxy]phenyl}carbamate]	< 10 nM	252 nM	–	–	–
COc1cc2nccc(Oc3ccc(NC(=O)OCCCSc4ccccn4)c(C)c3C)c2cc1OC [Example 173, 3-(2-Pyridylsulfanyl)propyl N-{4-[(6,7-dimethoxy-4-quinolyl)oxy]-2,3-dimethylphenyl}-carbamate]	< 10 nM	37 nM	–	–	–
COc1cc2ncnc(Oc3cc(C)c(NC(=O)OC4CCCC4)cc3C)c2cc1OC [Example 392, Cyclopentyl N-{4-[(6,7-dimethoxy-4-quinazolinyl)oxy]-2,5-dimethylphenyl}carbamate]	> 100 nM	432 nM	–	–	inhibition at 0.1 µM (PDGF-Ra; [1]): 38%
COc1cc2nccc(Oc3ccc(NC(=S)NC(=O)Cc4ccccc4Cl)cc3)c2cc1OC [Example 723, N-[2-(2-Chlorophenyl)acetyl]-N′-{4-[(6,7-dimethoxy-4-quinolyl)oxy]phenyl}thiourea]	–	–	17 nM	380 nM	–
COc1cc2nccc(Oc3ccc(NCCOc4cccc(C)c4)cc3C)c2cc1OC [Example 878, N-{4-[(6,7-Dimethoxy-4-quinolyl)oxy]-3-methylphenyl}-N-[2-(3-methylphenoxy)ethyl]amine]	–	–	19 nM	–	IC50 (c-kit; h-SCF stimulation): 65 nM
CCCOC(=O)Nc1ccc(Oc2ccnc3cc(OC)c(OC)cc23)c(C)c1C [Example 215, Propyl N-{4-[(6,7-Dimethoxy-4-quinolin)oxy]-2,3-dimethylphenyl}carbamate]	8 nM	< 30 nM	–	–	–
COc1cc2ncnc(Oc3ccc(NC(=S)NCCN(C(C)C)C(C)C)cc3)c2cc1OC [Example 535, N-{4-[(6,7-Dimethoxy-4-quinazolinyl)oxy]phenyl}-N′-(2-diisopropylaminoethyl)thiourea]	–	–	32 nM	–	inhibition at 1 µM (c-kit; figure within parentheses in −( ) or >1000( )): 27%
COc1cc2nccc(Oc3ccc(NC(=S)NC(=O)N4CCOCC4)cc3)c2cc1OC [Example 1045, N-{4-[(6,7-Dimethoxy-4-quinolyl)oxy]phenyl}-N′-morpholinocarbonylthiourea]	–	–	17 nM	–	IC50 (c-kit; h-SCF stimulation): 193 nM
COc1cc2nccc(Oc3ccc(NC(=O)OC4CCOCC4)c(C)c3C)c2cc1OC [Example 472, Tetrahydro-2H-4-pyranyl N-{4-[(6,7-dimethoxy-4-quinolyl)oxy]-2,3-dimethylphenyl}carbamate]	–	–	31 nM	67 nM	–
COc1cc2nccc(Oc3ccc(NC(=O)NC4CCN(Cc5ccccc5)C4)cc3)c2cc1OC (stereo not shown) [Example 560, N-(1-Benzyltetrahydro-1H-3-pyrrolyl)-N′-{4-[(6,7-dimethoxy-4-quinolyl)oxy]phenyl}urea]	–	–	12 nM	107 nM	–
COc1cc2nccc(Oc3ccc(NC(=O)NN4CCCCC4)cc3)c2cc1OC [Example 592, N-{4-[(6,7-Dimethoxy-4-quinolyl)oxy]phenyl}-N′-(1-piperidinyl)urea]	–	–	23 nM	472 nM	–
COc1cc2ncnc(Oc3ccc(NC(=O)OCC4CCCCC4)c(Cl)c3)c2cc1OC [Example 341, Cyclohexylmethyl N-{2-chloro-4-[(6,7-dimethoxy-4-quinazolinyl)oxy]phenyl}carbamate]	32 nM	519 nM	–	–	–
COc1cc2nccc(Oc3ccc(NC(=S)NCCCN4CCOCC4)c(C)c3C)c2cc1OC [Example 548, N-{4-[(6,7-Dimethoxy-4-quinolyl)oxy]-2,3-dimethylphenyl}-N′-[3-(1-morpholino)propyl]thiourea]	–	–	46 nM	268 nM	–
COc1cc(Oc2ncnc3cc(OC)c(OC)cc23)ccc1NC(=O)OC1CCCCC1 [Example 497, Cyclohexyl N-{4-[(6,7-dimethoxy-4-quinazolinyl)oxy]-2-methoxyphenyl}carbamate]	–	–	< 10 nM	82 nM	–
COc1cc2nccc(Oc3ccc(NC(=O)OCC4CCCC4)c(C)c3C)c2cc1OC [Example 396, Cyclopentylmethyl N-{4-[(6,7-dimethoxy-4-quinolyl)oxy]-2,3-dimethylphenyl}carbamate]	19 nM	86 nM	–	–	–
CCN(CC)C(=O)NC(=S)Nc1ccc(Oc2ccnc3cc(OC)c(OC)cc23)c(Cl)c1 [Example 1048, N-{3-Chloro-4-[(6,7-dimethoxy-4-quinolyl)oxy]phenyl}-{[(diethylamino)carbonyl]amino}methanethioamide]	–	–	< 10 nM	–	IC50 (c-kit; h-SCF stimulation): 250 nM
